Here are results for three compounds from patent publication US8518956B2, “1-(1-(2-ethoxyethyl)-3-ethyl-7-(4-methylpyridin-2-ylamino)-1H-pyrazolo[4,3-d]pyrimidin-5-yl) piperidine-4-carboxylic acid and salts thereof” (priority 2005, dated 2013).

The test system of data set [1] is Chinese hamster ovary (CHO) cells. Briefly: Method 7: Micronucleus Assay. Particulars: in vitro, with and without S9. Format: cell-based. Further details: key: Negative: A negative result identifies no genotoxic hazard defined by the assays specific endpoint; Positive: A positive result identifies a genotoxic hazard defined by the assays specific endpoint; Equivocal: fails to display a negative or positive result as defined by established evaluation criteria; Inconclusive: the test compound has been evaluated in an invalid assay test. On the procedure: Method 7: Micronucleus Assay
An in vitro micronucleus assay can be used to determine the mutagenic potential of a test compound. This assay detects chromosome abnormalities resulting from exposure to a test compound by measuring the formation of small membrane-bound DNA fragments such as micronuclei in the cytoplasm of interphase cells.
The assay is conducted using Chinese hamster ovary (CHO) cells under different test conditions in the absence and presence of metabolic activation. Concordance in outcomes between this screening assay and in vitro cytogenetics is around 85%. Direct (−S9) testing is conducted using 24 hour or 3 hour continuous treatments, whereas testing with metabolic activation (+S9) involves a 3 hour treatment. Clastogenicity is indicated by an increase in numbers of micronucleated cells in the first interphase after exposure (in cytokinesis-blocked binucleated cells). The results are compared to the level of cytotoxicity (measured by the proportion of binucleated cells) a test compound produces. […] A test compound displaying a negative response has not fulfilled specific evaluation criteria for the assay which may include one or both of the following: 1) a reproducible concentration dependent increase in the specific assay endpoint when compared to a negative (vehicle) control and/or 2) one or more test concentrations achieving a minimum fold increase in the specific endpoint over controls. • Positive—A positive result identifies a genotoxic hazard defined by the assays specific endpoint (ex. positive in vitro micronucleus). A test compound displaying a positive response has fulfilled specific evaluation criteria for the assay which may include one or both of the following: 1) a reproducible concentration dependent increase in the specific assay endpoint when compared to a negative (vehicle) control and/or 2) one or more test concentrations achieving a minimum fold increase in the specific endpoint over controls. • Equivocal—An equivocal result is reserved for situations where the test compound has been evaluated in a valid assay test or tests (i.e. assay acceptability criteria satisfactory), but fails to display a negative or positive result as defined by established evaluation criteria. This may convey the presence of a weak positive response that requires additional repeat testing or eventual confirmatory testing case-by-case. • Inconclusive—An inconclusive result is reserved for situations where the test compound has been evaluated in an invalid assay test (i.e. assay acceptability criteria unsatisfactory for technical reasons, ex. negative or positive controls fail to respond appropriately). Repeat testing is recommended in order to establish a valid assay test result.

A short description of data set [2]: Method 11: Single Dose Pharmacokinetics and Oral Bioavailability in Male Sprague-Dawley Rat. In kind it is in vivo. As to conditions: mean; for AUC(0-inf) / clearance / half-life / Vd / Cmax / Tmax: plasma, 2 mg/kg; for Vd: read-out: Vdss; for F: po 2 mg/kg vs iv 2 mg/kg. On the procedure:
Repeat testing is recommended in order to establish a valid assay test result. P. Pharmacokinetic/Pharmacodynamic Study Method 11: Single Dose Pharmacokinetics and Oral Bioavailability in Male Sprague-Dawley Rat Following Intravenous and Oral Administration
An in vivo model can be used to evaluate the single dose pharmacokinetic properties and absolute oral bioavailability of a test compound. As described more specifically below, a test compound is administered to Sprague-Dawley (SD) rats either intravenously or orally in a crossover study design and the resulting pharmacokinetic properties and oral bioavailability are measured.
Male rats are administered a 2.0 mg/kg dose orally (n=2) by gavage as a suspension (0.5% methylcellulose/0.1% Tween 80 in distilled water). After a 72 hour wash-out periond, the same rats were administered 2.0 mg/kg dose bolus intravenously (n=2) as a solution (70% PEG 400/20% 0.05 M Citrate Buffer pH 3/10% Ethanol). Serial blood samples (for plasma) are collected from each rat over a 24 hour post dose for each route. […] Pharmacokinetic parameters of a test compound are determined from the plasma concentration-time data using non-compartmental methods. • LC/MS/MS: 1) Column: Hyperso; AQUASIL C-18 2.1×20 mm, 3.0 μm; 2) Mobile phase: Aqueous Water with 0.1% Formic Acid, Orgainic: Acetonitrile; Ionization: +ESI (API 4000). MRM: m/z 494.4→m/z 394.0 (Example 261 in WO2004096810), m/z 509.44→m/z 409.80 (Example 263 in WO2004096810), m/z 495.33→m/z 395.20 (Example 262 in WO2004096810). The detection limits are 0.12 ng/mL (Example 261 in WO2004096810), 1.3 ng/mL (Example 263 in WO2004096810) and 0.11 ng/mL (Example 262 in WO2004096810).
Watson (Version 6.4.0.04) is used to calculate mean test compound concentrations, corresponding standard deviations (SD), and percent coefficient of variation (% CV), and to estimate pharmacokinetic parameters (derived by noncompartmental methods) and associated statistics (mean, SD & CV %) if applicable. (Since n=2, no SD or CV calculated ?). Concentrations below the limit of quantitation (BLQ) are reported as zero (0) and are used in the evaluation of mean concentrations and the estimation of AUC. The peak plasma concentration (Cmax) and the time to reach peak concentration (tmax) are recorded directly from individual plasma concentration-time profiles. The terminal log-linear phase of the plasma concentration-time curve is identified by linear regression of data points. The terminal half-life (t1/2) is calculated as ln(2) divided by absolute value of the slope of the terminal log-linear phase. The area under the plasma concentration-time curve from time zero to time of the last quantifiable concentration (t) [AUC(0-t)] is determined using the linear trapezoidal method. The area under the plasma concentration-time curve from time zero to infinity [AUC(0-∞)] is determined as AUC(0-t) plus the extrapolated area. The extrapolated area is determined by dividing the last observed plasma concentration by the slope of the terminal log-linear phase. Systemic plasma clearance (CL) is calculated as dose/AUC(0-∞) while the volume of distribution at steady state (Vdss) is calculated as CL×MRT, where MRT (mean residence time) is defined as AUMC(0-∞)/AUC(0-∞). The absolute PO bioavailability (F) is calculated as a ratio of the dose-normalized AUC(0-∞) of individual animal after PO administration to the dose-normalized AUC(0-∞) of individual animal after IV administration given the crossover study design.

As to `Cc1ccnc(Nc2nc(N3CCC(C(=O)O)CC3)nc3c(C)nn(CCOCC(F)(F)F)c23)c1` [WO2004096810 Example 261], the “METHOD 7: MICRONUCLEUS ASSAY” value in data set [1] was “Positive”. In data set [2] (iv), the area under the curve AUC(0-inf) is 19000 ng·h/mL, the clearance turned out to be 1.75 mL/min/kg, the half-life was 6.4 h and the Vd turned out to be 0.564 L/kg. In addition, in data set [2] (po), the AUC(0-inf) was 20000 ng·h/mL, the concentration peaked (Cmax) at 2350 ng/mL, the time to peak (Tmax) is 0.67 h and the half-life was 6.7 h. In addition, the F in data set [2] is on record as 105%.

With `Cc1cc(Nc2nc(N3CCC(C(=O)O)CC3)nc3c(C)nn(CCOCC(F)(F)F)c23)ncn1` [WO2004096810 Example 262], the “METHOD 7: MI[…]” value in data set [1] is reported as “Equivocal”. Moreover, in data set [2] (iv), the AUC(0-inf) is 440 ng·h/mL, the clearance stood at 76.3 mL/min/kg, the half-life is 5.5 h and the Vd was 6.11 L/kg. Besides, in data set [2] (po), the area under the curve AUC(0-inf) was 280 ng·h/mL, the concentration peaked (Cmax) at 87.1 ng/mL, the time to peak (Tmax) was 0.67 h and the half-life is 3.4 h. The F in data set [2] amounted to 63.9%.

Take `CCc1nn(CCOCC(F)(F)F)c2c(Nc3cc(C)ncn3)nc(N3CCC(C(=O)O)CC3)nc12` [WO2004096810 Example 263]: the “METHOD 7: MICRONUCLEUS ASSAY” value in data set [1] is reported as “Positive”. In data set [2] (iv), the total exposure AUC(0-inf) came to 555 ng·h/mL, the clearance stood at 60.1 mL/min/kg, the half-life was 4.5 h and the Vd was determined as 5.07 L/kg. In data set [2] (po), the AUC(0-inf) is 329 ng·h/mL, the concentration peaked (Cmax) at 102 ng/mL, the Tmax came to 0.33 h and the half-life was 3.8 h. This compound returned a F in data set [2] of 60.0%.

The term AUC(0-inf) denotes total exposure, with the tail of the curve extrapolated. For orientation: half-life means how long it takes for the measured level to halve. Usually Cmax stands for the maximum level reached in the sampled fluid or tissue. One may read the Tmax as the time from dosing to the highest level.
